Data set [1] concerns STAT3 phosphorylation. The following applies: different cell models, including EGFR-wild type NSCLC cells; Su et al., 2015; Wang et al., 2014; cited from earlier work.
Data set [2] has as its system EGFR wild-type NSCLC cell lines. The following applies: Wang et al 2014; cited from earlier work.
The target of a further data set is kinase. As to conditions: cited from earlier work.
Data set [3] concerns PC9 cells containing the EGFR-T790M mutation. Description: CRISPR-barcoding qPCR: fraction of EGFR-T790M barcode in PC9 cells in the presence of gefitinib. The data set is classed as cell-based. The following applies: SC-1 20 μM, gefitinib 1 μM, 5 days; FIG. 11A.
Text: (§1) Cells were transfected with a Nucleofector II device (Lonza) using the Amaxa Nucleofector kit (Lonza) and electroporation program recommended by the manufacturer.
(§2) The set of silent mutations is designed to enable PCR specificity and to avoid recognition by the corresponding sgRNA used to cleave the endogenous sequence. […] Immediately after transfection, the cells were pooled in the same flask.
(§3) gDNA was extracted using the NucleoSpin Tissue kit (Macherey-Nagel). To avoid potential amplification from ssODN molecules not integrated in the correct genomic locus, one of the two primers was designed to target the endogenous genomic sequence flanking the region sharing homology with the ssODNs.
as §1, §2
(Real-time PCR tracks product formation cycle by cycle.)

Another data set has as its system EGFR. Description: Immunoblot, EGFR expression in PC9 cells. As to conditions: 3 days, sorafenib 5 μM or SC-1 20 μM, FIG. 11B. It is filed as cell-based. Background: Immunoblotting shows a protein as a band on a membrane.
Data set [4] has as its system EGFR-wild type NSCLC cells. The following applies: different cell models, including EGFR-wild type NSCLC cells; Su et al., 2015; Wang et al., 2014; cited from earlier work.
In another data set the test system is breast cancer cell lines. The following applies: Liu et al. 2013; cited from earlier work.
The test system of data set [5] is STAT3 phosphorylation. The data set can be described thus: Immunoblot, STAT3 phosphorylation in PC9 cells. It is filed as cell-based. The following applies: for STATS phosphorylation: PC9 cells, 3 days, sorafenib 5 μM or SC-1 20 μM, FIG. 11B. How it is done: (§4) Immunoblot was performed using the indicated antibodies.
FIG. 11: SC-1 prevents resistance of NSCLC cells to EGFR TKI. […] The mean values (±SEM) representative of four independent experiments are represented. (B).
(§5) Cells were washed once with phosphate-buffered saline (PBS) and lysed on ice in a buffer containing 50 mM Hepes pH 7.6, 150 mM NaCl, 5 mM EDTA, 1% Nonidet P-40, 20 mM NAF, 2 mM sodium orthovanadate, supplemented with protease inhibitor mini tablets (Thermo Scientific). Lysates were cleared by centrifugation at 14,000 g during 15 min at 4° C. and protein concentrations were determined by using the Bradford protein assay (Bio-Rad). Sodium dodecyl sulfate (SDS) loading buffer was added to equal amounts of lysate, followed by SDS-polyacrylamide gel electrophoresis (SDS-PAGE) and transfer to polyvinylidene fluoride (PVDF) membrane (Thermo Scientific). Membranes were analyzed by chemiluminescence using a ChemiDoc imaging system (Biorad). All primary antibodies were purchased from Cell Signaling. Secondary antibodies were purchased from Santa Cruz.

The subject of data set [6] is NSCLC. The following applies: treatment of NSCLC; Shepherd et al 2005; cited from earlier work.
Data set [7] has as its system EGFR-T790M PC9 cells containing the EGFR-C797S CRISPR-barcode. As to conditions: mouse, in vivo.
Description: From day 39, the mice were treated three times per week. The mean tumor size ±SEM is represented for the different groups (5 mice per group).
The proportions of the barcode in the cells prior to mouse injection was analyzed in parallel and arbitrarily set to 1. (B) For each group, the mean of the values (±SEM) shown in A is represented.
Gefitinib resistant PC9 cells (EGFR-T790M) containing the EGFR-C797 CRISPR-barcodes were mixed with matrigel and subcutaneously inoculated in the left and right flank (2×10^6 cells per site) of male SCID mice. The size of the tumors was measured by caliper every 3-4 days. […] From day 39, the mice were treated three times per week. Tumors from sacrificed mice were dissected, and gDNA was derived using the DNeasy Blood & Tissue Kit (Qiagen).
For data set [8], the system named is EGFR-C797S cells within PC9-(EGFR-T790M) cells. Description: CRISPR-barcoding qPCR: EGFR-C797S barcode in PC9-(EGFR-T790M) cells. The data set is classed as cell-based. The following applies: osimertinib 1 μM alone, nine days; FIG. 3A.
Text: as §2, §3

Data set [9] has the same test system. Description: Colony forming assay, EGFR-C797S barcoded PC9-(EGFR-T790M) cells. The following applies: osimertinib 1 μM alone, 14 days; FIG. 3B. The data set is classed as cell-based.
Data set [10] concerns parental, EGFR-T790M and EGFR-T790M/C797S PC9 cells.
The subject of data set [11] is NSCLC. The following applies: first-line treatment; Soria et al. 2018; cited from earlier work.
Another data set deals with MYC transcription factor. The data set can be described thus: Immunoblot, MYC expression in PC9 cells. It is filed as cell-based. The following applies: sorafenib 5 μM, two days; parental and EGFR-T790M PC9 cells; FIG. 4B. Here is the method:
as §4, §5

In the next data set the test system is MAPK activation. The data set can be described thus: Immunoblot, MAPK activation in PC9 cells. The data set is classed as cell-based. The following applies: sorafenib 5 μM, 2 or 6 hours; FIG. 4A. Here is the method: as §4, §5

With `N#Cc1ccc(Oc2ccc(NC(=O)Nc3ccc(Cl)c(C(F)(F)F)c3)cc2)cc1` [SC-1, N-[4-Chloro-3-(trifluoromethyl)phenyl]-N′-[4-(4-cyanophenoxy)phenyl]-urea], the pSTAT3 inhibition entry in the data set with STAT3 phosphorylation [1] is recorded as “pSTAT3 inhibition”. The apoptosis entry (in data set [2]; in the data set with breast cancer cell lines) was “induces apoptosis” in each case. The kinase-inhibition activity entry on kinase was “no kinase-inhibition activity”. Also, the “amplification of EGFR-T790M containing cells in the presence of gefitinib (qPCR)” value in data set [3] is on record as “could mimic the effects of sorafenib”. Moreover, in the data set on EGFR, the EGFR expression result is reported as “down-regulated”. Moreover, the growth inhibition entry in [4] is listed as “growth inhibition”. In the data set on STAT3 phosphorylation [5], the STATS phosphorylation result is “inhibited”.

Regarding `C#Cc1cccc(Nc2ncnc3cc(OCCOC)c(OCCOC)cc23)c1` [erlotinib], the clinical response rate result in the data set on NSCLC [6] is “about 8.9%”.

As to `C=CC(=O)Nc1cc(Nc2nccc(-c3cn(C)c4ccccc34)n2)c(OC)cc1N(C)CCN(C)C` [osimertinib], the “growth of the tumors / tumor size” value in data set [7] was “initially inhibited, but it eventually resumed after a few weeks”. Besides, the “amplification of EGFR-C797S cells (qPCR)” value in data set [8] is on record as “induced a strong amplification”. Besides, the “amplification of EGFR-C797S cells (colony forming assay)” value in data set [9] is given as “induced a strong amplification”. For the same molecule, in data set [10], the “cell growth (colony forming assay)” value is “inhibited cell growth”. Moreover, in the data set on NSCLC [11], the “adverse effects compared to first/second generation TKIs” value is reported as “less severe adverse effects” and the “efficacy compared to first/second generation TKIs” value is reported as “superior efficacy”.

Consider `CNC(=O)c1cc(Oc2ccc(NC(=O)Nc3ccc(Cl)c(C(F)(F)F)c3)cc2)ccn1` [sorafenib], for which the “expression of MYC transcription factor” value in the data set with MYC transcription factor is reported as “down-regulated”. For the same molecule, the STATS phosphorylation result with STAT3 phosphorylation [5] is “inhibited”. The STAT3 phosphorylation result in the data set on STAT3 phosphorylation [5] (sorafenib 5 μM, 2 or 6 hours, FIG. 4) was “rapid inhibition”. Also, the MAPK activation entry in the data set with MAPK activation was “no effect”.
